Laboratory results from publication PMC10535880, “Caco-2 Cell Sheet Partially Laminated with HT29-MTX Cells as a Novel In Vitro Model of Gut Epithelium Drug Permeability” (Pharmaceutics, 2023).
Where two headings read alike, the source gives them in different places.

Columns and labels:
HT29-MTX-E12 cells = tested on: HT29-MTX-E12 cells; design: method as in PMID 23869232; conditions: added during the first six days of semi-wet interface with mechanical stimulation; 28 days of incubation; without addition 3–5 μm; cited from earlier work
[1] = tested on: Caco-2/HT29-MTX partially laminated model
Description: In the short-term culture model, Caco-2 monolayers were prepared according to the protocol of the Corning® BioCoat^TM Intestinal Epithelial Cell Environment Kit (Corning Inc., Corning, NY, USA) with slight modifications with reference to the procedure reported by Yamashita et al. [20]. Briefly, Caco-2 cells were seeded at a density of 1 × 10^5 cells/insert onto 24-well Transwell® inserts (0.4 μm pore size, Corning Inc.) using a basal seeding medium. After 24 h of incubation (37 °C, 5% CO2), the basal seeding medium was replaced with the enterocyte differential medium. After an additional 72 h of incubation, a cell monolayer was formed, and the integrity was evaluated via TEER using an epithelial volt-ohmmeter (EVOM2, World Precision Instruments Inc., Sarasota, FL, USA). In the long-term culture model, Caco-2 cells were seeded at a density of 1 × 10^4 cells/insert onto 24-well Transwell® inserts using DMEM containing 10% FBS, 1% nonessential amino acids, and 1% penicillin-streptomycin for 21 days.
(§1) When preparing the partially laminated model, a Caco-2 monolayer with a TEER value ≥ 2000 Ω·cm^2 was formed first, and HT29-MTX cells were then laminated onto the Caco-2 monolayer at ratios of 1:9, 3:7, and 5:5, followed by incubation for the predetermined time. As for the coculture model, Caco-2 and HT29-MTX cells were seeded simultaneously in the different ratios and incubated for the predetermined time to form a hybrid monolayer.
(§2) Briefly, the culture medium on both sides of the Transwell® insert was replaced with HBSS and washed twice with prewarmed HBSS. […] The Papp coefficients of the model drugs were calculated using the following equation [19, 21]:(1) Papp=dQ/dt×1/A.C0 where dQ/dt is the velocity of solutes transported across the culture cell sheet in time, C0 is the concentration of the solute in the apical compartment at time zero, and A is the cross-sectional area of the cell sheet in contact with the apical solution.
The supernatant was collected as a sample for LC-MS/MS. […]

[2] = tested on: Caco-2/HT29-MTX coculture model
Description: as §1, §2

Row | Papp compared to that in the Caco-2 monolayer ([1]; 5:5 ratio of Caco-2/HT29-MTX) | Papp compared to that in the Caco-2 monolayer ([1]; 7:3 ratio of Caco-2/HT29-MTX) | Papp compared to that in the Caco-2 monolayer ([1]; 9:1 ratio of Caco-2/HT29-MTX) | Papp compared to that in the Caco-2 monolayer model [2] | Papp compared to that of the HT29-MTX monolayer ([2]; independent of the Caco-2:HT29-MTX ratio) | Molecule | mucus layer thickness (HT29-MTX-E12 cells)
1 |  |  |  |  |  | C[C@H](NC(=O)Cc1cc(F)cc(F)c1)C(=O)NC(C(=O)OC(C)(C)C)c1ccccc1 (stereo partly drawn) [N-[(3,5-difluorophenyl)acetyl]-L-alanyl-2-phenyl]glycine-1,1-dimethylethyl ester] | 25–30 μm
2 | 1.5 times | 1.5 times | similar | significantly higher | similar | Lucifer yellow | 
